Laboratory results: PubChem BioAssay (NCI)
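Where inhibition never reached the appropriate level, the endpoint shown equals the highest concentration tested. Otherwise, values were interpolated linearly from a five-concentration, 48-hour dose response in 96-well plates. At the GI50, growth is halved. At the TGI there is no net growth.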

Test system: CAKI-1 renal
Experiment: DTP human tumour cell line panel, 48 h

Row | Compound | TGI | GI50
1 | CC1C=C(CCCCCCCCCCCC[C@@H](O)[C@@H]2CC[C@@H]([C@@H]3CC[C@@H](C(O)CCCCCCCCCCCCC4=C[C@H](C)OC4=O)O3)O2)C(=O)O1 (stereo partly specified) | > 100 µM | –
2 | COc1cc([C@@H]2OCC3C(c4ccc5c(c4)OCO5)OCC32)cc(OC)c1OC (stereo partly specified) | > 100 µM | –
3 | Cc1cc(N(CCC#N)CCC#N)ccc1/C(N=Nc1ccc(Cl)cc1)=N\NC(=O)c1ccccc1 | > 100 µM | –
4 | CCc1ccc(CCN2CCCCC2)nc1 | > 100 µM | –
5 | N#CN=C(N(Cc1ccccc1)Cc1ccccc1)N(Cc1ccccc1)Cc1ccccc1 | > 100 µM | –
6 | CNC(=O)C(C)C1CCC2(C)C=CC(=O)C(C)=C2C1O (stereo unspecified) | 91.7 µM | –
7 | CCOc1cc2c(cc1O)/C(=N\OC)C[C@@H]1[C@@H]2CC[C@]2(C)[C@@H](O)CC[C@@H]12 | > 23.4 µM | –
8 | CC1(C)N=C(/C(Cl)=[N+](/[O-])C(=O)c2ccc(F)cc2)C(C)(C)N1O | 34.5 µM | –
9 | COC(=O)[C@H](Cc1c[nH]c2ccccc12)NP(=O)(O)OCC1C=CC(n2cc(C)c(=O)[nH]c2=O)O1 (stereo partly specified) | > 100 µM | –
10 | CCCNC1=C2CC(C)CC(OC)[C@@H](O)[C@H](C)/C=C(\C)C(OC(N)=O)C(OC)/C=C\C=C(/C)C(=O)NC(=CC1=O)C2=O (stereo partly specified) | > 100 µM | –
11 | C[n+]1c2ccccc2c(/C=N\NS(=O)(=O)c2ccc(O)c(C(=O)O)c2)c2ccccc21 | > 100 µM | –
12 | O=C(Nc1ccc(C2=NCCN2)cc1)c1cncc(C(=O)Nc2ccc(C3=NCCN3)cc2)c1 | > 100 µM | –
13 | Clc1ccc(/C=C/c2nc3ccccc3s2)cc1Cl | 48.6 µM | –
14 | C(/c1ccco1)=c1/nc(-c2ccccc2)n2c1nc1ccccc12 | 72.2 µM | –
15 | CC(=O)Nc1ccc(-c2nnc(SCC(=O)Nc3ccc([N+](=O)[O-])cc3)o2)cc1 | 27.5 µM | –
16 | COC(=O)C1CCC(=O)N1C(c1ccccc1)c1ccc(OC)c(OC)c1 (stereo unspecified) | > 100 µM | –
17 | Cc1cccc(/C=N/NC(=S)Nc2ccccc2)n1 | > 42.3 µM | –
18 | Cc1cc(=O)[nH]c(NN2C(Cl)C(=O)C2c2ccccc2O)n1 (stereo unspecified) | > 100 µM | –
19 | COc1ccc(/C=C2\CCC(C)C3=C2NC(=S)NC3c2ccc(OC)c(OC)c2)cc1OC (stereo unspecified) | > 31.6 µM | –
20 | CC[C@@]1(C[C@H]2C[C@@]3(C(=O)OC)c4[nH]c5ccccc5c4CCN3C2=O)COC2(CCCCC2)O1 | > 100 µM | –

Row | Compound | TGI | GI50
21 | COc1ccc2c(=O)c(O)c(-c3ccc(OC)c(OC)c3)oc2c1 | 13 µM | –
22 | CC(C)CCCCCCCCCCCCC(=O)NCC(=O)NC1C(C)OC(Nc2ncnc3c2ncn3C)C(O)C1O (stereo unspecified) | 5.6 µM | –
23 | C=C(C1=CC(=O)C(C)(C)O1)[C@@H]1CC=C([C@@H]2CC[C@H]3[C@@]2(C)CC[C@H]2C(C)(C)C(=O)[C@H](O)C[C@]32C)[C@H](O)O1 | 14.2 µM | –
24 | CC1=CC2C(O1)C1C(=O)C=CC(=O)C1=CC2[N+](=O)[O-] (stereo unspecified) | 9.33 µM | –
25 | C=C(Br)C(C)(Cl)CCC(Br)C(C)(C)Cl (stereo unspecified) | > 100 µM | –
26 | CN1CCN([C@H]2C[C@H]3[C@@H]4CC=C5C[C@@H](O)CC[C@]5(C)[C@H]4CC[C@]3(C)C2=O)CC1 | > 100 µM | –
27 | CCOC(=O)Nn1c(C)nnc1-c1ccccc1 | > 100 µM | –
28 | Cc1cn(C2CC(n3cc(Cn4cc(I)c(=O)[nH]c4=O)nn3)C(CO)O2)c(=O)[nH]c1=O (stereo unspecified) | > 100 µM | –
29 | CCC12C=CCN3CCC4(C(=C(C(=O)OC)[C@@H]1O)Nc1ccccc14)C32 (stereo partly specified) | 7.18 µM | –
30 | O=C1CCC(=O)N1n1c(Cc2ccccc2)n[nH]c1=O | > 100 µM | –
31 | O=C(O)CN(CC(=O)O)C1CCCCC1N(CC(=O)O)CC(=O)NCCN=C=S (stereo unspecified) | > 100 µM | –
32 | N=c1n(C(=O)N2CCCC2)c2cc(Cl)ccc2n1C1=NCCN1 | > 100 µM | –
33 | Cc1cn(C2CC(N(O)C(N)=O)C(CO)O2)c(=O)[nH]c1=O (stereo unspecified) | > 100 µM | –
34 | COc1nc(N)c(C(=O)CCl)c(=O)n1C | 23.4 µM | –
35 | O=C1CCC23CC(C=CC=C12)n1c(=O)n(-c2ccccc2)c(=O)n13 (stereo unspecified) | > 83.4 µM | –
36 | [N-]=[N+]=Nc1cc(=O)oc2ccccc12 | > 100 µM | –
37 | O=C(O)c1cccc2c1/C(=N/Nc1ccccc1)CC2 | > 100 µM | –
38 | O=C(Cc1cccs1)N[C@@H]1C(=O)N2C(C(=O)OC(c3ccccc3)c3ccccc3)=C(CO)CS[C@H]12 | > 100 µM | –
39 | CC1=C(C)[C@@]2(C)O[C@@]2(C)O[C@@]2(C)O[C@@]12C | > 100 µM | –
40 | O=C([O-])CC(=O)[O-].O=C([O-])CC(=O)[O-].[K+].[Pd+2] | > 100 µM | > 100 µM

Test system: DU-145 prostate
Experiment: DTP human tumour cell line panel, 48 h

Row | Compound | TGI | GI50
41 | CCNC(=S)N/N=C/c1cc([N+](=O)[O-])ccc1O | > 100 µM | –
42 | Cc1cc(N(CCC#N)CCC#N)ccc1/C(N=Nc1ccc(Cl)cc1)=N\NC(=O)c1ccccc1 | > 100 µM | –
43 | CCc1ccc(CCN2CCCCC2)nc1 | > 100 µM | –
44 | CCOc1cc2c(cc1O)/C(=N\OC)C[C@@H]1[C@@H]2CC[C@]2(C)[C@@H](O)CC[C@@H]12 | > 100 µM | –
45 | CC1(C)N=C(/C(Cl)=[N+](/[O-])C(=O)c2ccc(F)cc2)C(C)(C)N1O | 78.7 µM | –
46 | COC(=O)[C@H](Cc1c[nH]c2ccccc12)NP(=O)(O)OCC1C=CC(n2cc(C)c(=O)[nH]c2=O)O1 (stereo partly specified) | > 100 µM | –
47 | CCCNC1=C2CC(C)CC(OC)[C@@H](O)[C@H](C)/C=C(\C)C(OC(N)=O)C(OC)/C=C\C=C(/C)C(=O)NC(=CC1=O)C2=O (stereo partly specified) | 65.5 µM | 14.8 µM
48 | Clc1ccc(/C=C/c2nc3ccccc3s2)cc1Cl | > 100 µM | –
49 | C(/c1ccco1)=c1/nc(-c2ccccc2)n2c1nc1ccccc12 | > 100 µM | –
50 | COC(=O)C1CCC(=O)N1C(c1ccccc1)c1ccc(OC)c(OC)c1 (stereo unspecified) | > 100 µM | –
51 | Cc1cccc(/C=N/NC(=S)Nc2ccccc2)n1 | > 67.7 µM | –
52 | Cc1cc(=O)[nH]c(NN2C(Cl)C(=O)C2c2ccccc2O)n1 (stereo unspecified) | > 100 µM | –
53 | COc1ccc(/C=C2\CCC(C)C3=C2NC(=S)NC3c2ccc(OC)c(OC)c2)cc1OC (stereo unspecified) | > 31.6 µM | –
54 | CC[C@@]1(C[C@H]2C[C@@]3(C(=O)OC)c4[nH]c5ccccc5c4CCN3C2=O)COC2(CCCCC2)O1 | > 100 µM | –
55 | COc1ccc2c(=O)c(O)c(-c3ccc(OC)c(OC)c3)oc2c1 | > 100 µM | –
56 | C=C(C1=CC(=O)C(C)(C)O1)[C@@H]1CC=C([C@@H]2CC[C@H]3[C@@]2(C)CC[C@H]2C(C)(C)C(=O)[C@H](O)C[C@]32C)[C@H](O)O1 | 2.91 µM | –
57 | CC1=CC2C(O1)C1C(=O)C=CC(=O)C1=CC2[N+](=O)[O-] (stereo unspecified) | > 55.9 µM | –
58 | C=C(Br)C(C)(Cl)CCC(Br)C(C)(C)Cl (stereo unspecified) | > 100 µM | –
59 | CCOC(=O)Nn1c(C)nnc1-c1ccccc1 | > 100 µM | –
60 | Cc1cn(C2CC(n3cc(Cn4cc(I)c(=O)[nH]c4=O)nn3)C(CO)O2)c(=O)[nH]c1=O (stereo unspecified) | > 100 µM | –
61 | CNC(=O)OCC1=C(COC(=O)NC)C(C)N(c2ccc(OC)cc2)C1 (stereo unspecified) | > 100 µM | –
62 | O=C1CCC(=O)N1n1c(Cc2ccccc2)n[nH]c1=O | > 100 µM | –
63 | O=C(O)CN(CC(=O)O)C1CCCCC1N(CC(=O)O)CC(=O)NCCN=C=S (stereo unspecified) | > 100 µM | –
64 | N=c1n(C(=O)N2CCCC2)c2cc(Cl)ccc2n1C1=NCCN1 | > 100 µM | –
65 | Cc1cn(C2CC(N(O)C(N)=O)C(CO)O2)c(=O)[nH]c1=O (stereo unspecified) | > 100 µM | –
66 | O=C(O)c1cccc2c1/C(=N/Nc1ccccc1)CC2 | > 100 µM | –
67 | O=C(Cc1cccs1)N[C@@H]1C(=O)N2C(C(=O)OC(c3ccccc3)c3ccccc3)=C(CO)CS[C@H]12 | > 100 µM | –
68 | CC1=C(C)[C@@]2(C)O[C@@]2(C)O[C@@]2(C)O[C@@]12C | > 100 µM | –

Test system: M14 melanoma
Experiment: DTP human tumour cell line panel, 48 h

Row | Compound | TGI
69 | CC1C=C(CCCCCCCCCCCC[C@@H](O)[C@@H]2CC[C@@H]([C@@H]3CC[C@@H](C(O)CCCCCCCCCCCCC4=C[C@H](C)OC4=O)O3)O2)C(=O)O1 (stereo partly specified) | > 100 µM
70 | CCNC(=S)N/N=C/c1cc([N+](=O)[O-])ccc1O | > 100 µM
71 | COc1cc([C@@H]2OCC3C(c4ccc5c(c4)OCO5)OCC32)cc(OC)c1OC (stereo partly specified) | > 100 µM
72 | Cc1cc(N(CCC#N)CCC#N)ccc1/C(N=Nc1ccc(Cl)cc1)=N\NC(=O)c1ccccc1 | > 100 µM
73 | CCc1ccc(CCN2CCCCC2)nc1 | > 100 µM
74 | N#CN=C(N(Cc1ccccc1)Cc1ccccc1)N(Cc1ccccc1)Cc1ccccc1 | > 100 µM
75 | CCOc1cc2c(cc1O)/C(=N\OC)C[C@@H]1[C@@H]2CC[C@]2(C)[C@@H](O)CC[C@@H]12 | 21.8 µM
76 | CC1(C)N=C(/C(Cl)=[N+](/[O-])C(=O)c2ccc(F)cc2)C(C)(C)N1O | 30.3 µM
77 | C[n+]1c2ccccc2c(/C=N\NS(=O)(=O)c2ccc(O)c(C(=O)O)c2)c2ccccc21 | > 100 µM
78 | Clc1ccc(/C=C/c2nc3ccccc3s2)cc1Cl | > 100 µM
79 | C(/c1ccco1)=c1/nc(-c2ccccc2)n2c1nc1ccccc12 | > 100 µM
80 | CC(=O)Nc1ccc(-c2nnc(SCC(=O)Nc3ccc([N+](=O)[O-])cc3)o2)cc1 | 26.9 µM
81 | N.N.N.N.O=[N+]([O-])[O-].[Co+3].[N-]=[N+]=[N-].[N-]=[N+]=[N-] | > 100 µM
82 | COC(=O)C1CCC(=O)N1C(c1ccccc1)c1ccc(OC)c(OC)c1 (stereo unspecified) | > 100 µM
83 | Cc1cccc(/C=N/NC(=S)Nc2ccccc2)n1 | 8.05 µM
84 | Cc1cc(=O)[nH]c(NN2C(Cl)C(=O)C2c2ccccc2O)n1 (stereo unspecified) | > 34.7 µM
85 | COc1ccc(/C=C2\CCC(C)C3=C2NC(=S)NC3c2ccc(OC)c(OC)c2)cc1OC (stereo unspecified) | > 31.6 µM
86 | CC[C@@]1(C[C@H]2C[C@@]3(C(=O)OC)c4[nH]c5ccccc5c4CCN3C2=O)COC2(CCCCC2)O1 | > 100 µM
87 | COc1ccc2c(=O)c(O)c(-c3ccc(OC)c(OC)c3)oc2c1 | > 100 µM
88 | C=C(C1=CC(=O)C(C)(C)O1)[C@@H]1CC=C([C@@H]2CC[C@H]3[C@@]2(C)CC[C@H]2C(C)(C)C(=O)[C@H](O)C[C@]32C)[C@H](O)O1 | 3.08 µM
89 | CC1=CC2C(O1)C1C(=O)C=CC(=O)C1=CC2[N+](=O)[O-] (stereo unspecified) | 29.4 µM
90 | C=C(Br)C(C)(Cl)CCC(Br)C(C)(C)Cl (stereo unspecified) | > 100 µM
91 | CN1CCN([C@H]2C[C@H]3[C@@H]4CC=C5C[C@@H](O)CC[C@]5(C)[C@H]4CC[C@]3(C)C2=O)CC1 | > 100 µM
92 | CCOC(=O)Nn1c(C)nnc1-c1ccccc1 | > 100 µM
93 | Cc1cn(C2CC(n3cc(Cn4cc(I)c(=O)[nH]c4=O)nn3)C(CO)O2)c(=O)[nH]c1=O (stereo unspecified) | > 100 µM
94 | CNC(=O)OCC1=C(COC(=O)NC)C(C)N(c2ccc(OC)cc2)C1 (stereo unspecified) | > 100 µM
